Results as given in PMC3038857, “Using Nuclear Receptor Activity to Stratify Hepatocarcinogens” (PLoS ONE, 2011).

What was measured:
PXR Human (NR1I2) = biological target: T1, PXR Human (NR1I2) (Homo sapiens, UniProt O75469); experiment: NCGC_PXR_Agonist_human: GAL4 BLAM Reporter gene assay: PXR Human; type: cell-based; conditions: agonist mode
T1 sequence (O75469 146-434 limits assumed): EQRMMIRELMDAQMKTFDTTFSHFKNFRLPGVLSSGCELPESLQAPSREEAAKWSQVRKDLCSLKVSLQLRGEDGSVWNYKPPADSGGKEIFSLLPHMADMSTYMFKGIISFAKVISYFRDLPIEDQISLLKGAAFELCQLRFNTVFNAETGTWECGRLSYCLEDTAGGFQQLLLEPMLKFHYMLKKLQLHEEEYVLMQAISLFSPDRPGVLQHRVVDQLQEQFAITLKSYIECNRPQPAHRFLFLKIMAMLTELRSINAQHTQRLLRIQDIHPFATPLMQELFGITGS
Method in brief: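 Cell-based GAL4 beta-lactamase reporter assays run at NIH Chemical Genomics Center as part of Tox21. Curve fits required R^2 ≥0.5; values where only the highest concentration exceeded 50% activity were excluded.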

PXR (NR1I2) = biological target: T2, PXR (NR1I2) (Homo sapiens, UniProt O75469); experiment: NVS_NR_hPXR: Human PXR Fluormone PXR (SXR) green (cell-free HTS); type: binding
T2 sequence (O75469 1-434): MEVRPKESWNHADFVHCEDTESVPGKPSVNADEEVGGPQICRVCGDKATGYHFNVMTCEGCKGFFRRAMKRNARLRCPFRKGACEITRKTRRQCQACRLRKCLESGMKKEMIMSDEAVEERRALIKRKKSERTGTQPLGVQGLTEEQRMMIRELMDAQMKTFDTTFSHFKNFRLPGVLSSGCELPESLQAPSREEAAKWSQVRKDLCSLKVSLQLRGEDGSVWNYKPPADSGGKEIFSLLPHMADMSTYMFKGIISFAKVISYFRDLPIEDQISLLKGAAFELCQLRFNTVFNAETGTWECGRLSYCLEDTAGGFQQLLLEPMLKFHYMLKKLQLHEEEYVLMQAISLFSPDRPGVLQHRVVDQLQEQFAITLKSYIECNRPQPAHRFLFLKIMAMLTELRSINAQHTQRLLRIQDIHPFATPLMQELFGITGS
Method in brief: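 Responses were normalized to same-plate solvent controls as percent of neutral control. AC50 values came from Hill-equation fits of concentration-response curves.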

PPARg (PPARG) = biological target: T3, PPARg (PPARG) (Homo sapiens, UniProt P37231); experiment: NCGC_PPARg_Agonist: GAL4 BLAM Reporter gene assay: PPARg; type: cell-based; parameters: expressed in transfected cells; host or cells: HEK293; conditions: agonist mode
T3 sequence (P37231 1-505): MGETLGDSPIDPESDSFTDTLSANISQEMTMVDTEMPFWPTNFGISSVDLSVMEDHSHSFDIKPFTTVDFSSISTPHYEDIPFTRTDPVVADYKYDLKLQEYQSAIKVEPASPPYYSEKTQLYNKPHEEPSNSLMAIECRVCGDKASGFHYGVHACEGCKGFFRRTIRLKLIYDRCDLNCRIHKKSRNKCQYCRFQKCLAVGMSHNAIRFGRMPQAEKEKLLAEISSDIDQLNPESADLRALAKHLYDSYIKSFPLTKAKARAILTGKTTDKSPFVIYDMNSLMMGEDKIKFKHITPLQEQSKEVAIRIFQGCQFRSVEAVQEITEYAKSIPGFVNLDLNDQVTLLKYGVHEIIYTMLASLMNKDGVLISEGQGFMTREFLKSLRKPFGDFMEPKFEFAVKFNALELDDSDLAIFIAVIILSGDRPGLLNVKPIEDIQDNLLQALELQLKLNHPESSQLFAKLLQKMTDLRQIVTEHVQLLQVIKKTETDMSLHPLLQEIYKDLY
Method: These assays measure binding constants and enzyme inhibition values for nuclear receptors. The targets include [drawing 67] , [drawing 68] , [drawing 69] , [drawing 70] , [drawing 71] , [drawing 72] , [drawing 73] , [drawing 74] , [drawing 75] and [drawing 76] . Each of the nuclear receptor targets was measured in agonist mode. Assays were run at the NIH Chemical Genomics Center (Rockville, MD).
Cell-based HTS Assays: These assays measuring binding constants and enzyme inhibition values for nuclear receptors. The targets include AR, ER, FXR, LXR, PPARα, PPARδ, PPARγ, RXRα, RXRβ and PXR. Each of the nuclear receptor targets was measured in both agonist and antagonist mode, but the antagonist data is still undergoing analysis due to possible interference between cytotoxicity and assay activity, so antagonist mode data were not used in the present analysis. Assays were run at the NIH Chemical Genomics Center (Rockville, MD) as part of the Tox21 collaboration. […] The R^2 was required to be ≥0.5. Values where only the highest concentration exceeded 50% activity were excluded to eliminate weak or false positives. Detailed description of the methods, data and analysis methods for this dataset will be presented in a separate publication.

[1] = biological target: T4, PPARG (peroxisome proliferator-activated receptor gamma) (Homo sapiens, UniProt P37231); experiment: ATG_PPARg_TRANS: Factorial reporter gene assay (HepG2); type: cell-based; conditions: HepG2 reporter
T4 construct: expressed in transfected cells; host or cells: HepG2
T4 sequence (P37231 1-505): T3 sequence (P37231 1-505)
Method in brief: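 Seven concentrations per chemical, three-fold dilutions down from the MTC, were tested in HepG2 hepatoma cells. Those cells carried a multiple reporter transcription unit library, read either as cis transcription-factor-site reporters or as a trans mammalian one-hybrid panel for nuclear receptors.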

CYP1A1 = experiment: CLZD_CYP1A1: Change in expression of CYP1A1 (primary human hepatocytes); type: cell-based; conditions: 24 hr
Method in brief: (§1)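 Five-point concentration series (0.004-40 µM) applied to primary human hepatocytes; 6/24/48 hr timepoints; transcript quantified by multiplexed nuclease protection.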

CYP1A2 = experiment: CLZD_CYP1A2: Change in expression of CYP1A2 (primary human hepatocytes); type: cell-based; conditions: 24 hr
Method in brief: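 Cultured primary human hepatocytes treated with chemicals for 6, 24 or 48 hr across five concentrations spanning 0.004-40 µM, then transcript level measured by quantitative nuclease protection in a multiplexed format.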

CYP2B6 = experiment: CLZD_CYP2B6: Change in expression of CYP2B6 (primary human hepatocytes); type: cell-based; conditions: 24 hr
Method in brief: as §1

Rat Liver [2] = conditions: chronic study, rat liver; ref ToxRefDB; cited from earlier work
Rat Liver [3] = conditions: chronic study, rat liver; ref ToxRefDB; cited from earlier work; remark: listed apart in the source
Rat Liver [4] = conditions: chronic study, rat liver; ref ToxRefDB; cited from earlier work; remark: listed apart in the source
CYP3A4 = experiment: CLZD_CYP3A4: Change in expression of CYP3A4 (primary human hepatocytes); type: cell-based; conditions: 24 hr
Method in brief: as §1

Mouse Liver [5] = conditions: chronic study, mouse liver; ref ToxRefDB; cited from earlier work
Mouse Liver [6] = conditions: chronic study, mouse liver; ref ToxRefDB; cited from earlier work; remark: listed apart in the source
Mouse Liver [7] = conditions: chronic study, mouse liver; ref ToxRefDB; cited from earlier work; remark: listed apart in the source
ABCB1 = experiment: CLZD_ABCB1: Change in expression of ABCB1 (primary human hepatocytes); type: cell-based; conditions: 24 hr
Method in brief: as §1

ABCB11 = experiment: CLZD_ABCB11: Change in expression of ABCB11 (primary human hepatocytes); type: cell-based; conditions: 24 hr
Method: This is a collection of multiplexed gene expression assays focused on Phase I and II xenobiotic metabolizing enzymes and transporters. Human primary cell cultures were treated with chemicals at 5 concentrations (0.004-40 [drawing 42] M) for 6, 24 and 48 hr. Concentration- and time-response profiles of chemicals were measured by the expression of key nuclear receptor target genes, activities of CYP1A enzymes (EROD), and cell morphology. Fourteen gene targets were monitored by quantitative nuclease protection assay including: six representative cytochrome P-450 genes, four hepatic transporters, three Phase II conjugating enzymes, and one endogenous metabolism gene involved in cholesterol synthesis. The target genes associated with nuclear receptor pathways are as follows: [drawing 43] and [drawing 44] with [drawing 45]; [drawing 46] , [drawing 47] , [drawing 48] , [drawing 49] , [drawing 50] and [drawing 51] with [drawing 52]; [drawing 53] , [drawing 54] , [drawing 55] and [drawing 56] with [drawing 57]; [drawing 58] with [drawing 59]; and [drawing 60] with [drawing 61] . Assays were run in primary human hepatocyte cultures by CellzDirect Invitrogen Inc. (Durham, NC), in collaboration with EPA.
Multiplexed Gene Expression in Human Primary Hepatocytes: This is a collection of multiplexed gene expression assays focused on Phase I and II metabolic enzymes and transporters. […] Fourteen gene targets were monitored by quantitative nuclease protection assay: six representative cytochrome P450 genes, four hepatic transporters, three Phase II conjugating enzymes, and one endogenous metabolism gene involved in cholesterol synthesis. Cells were exposed at 5 concentrations (0.004-40 µM) for 6, 24 or 48 hr. Gene targets are sentinels for five nuclear receptor signaling pathways: AhR, CAR, PXR, FXR, and PPARα. All gene are associated with nuclear receptor pathways: CYP1A1 and CYP1A2 with AHR; ABCB1, ABCG2, CYP2B6, CYP2C9, CYP2C19 and UGT1A1 with CAR; CYP3A4, GSTA2, SLCO1B1 and SULT2A1 with PXR; HMGCS2 with PPARA; and ABCB11 with FXR. […] Detailed description of the methods, data and analysis methods for this dataset will be presented in a separate publication.

CAR (NR1I3) = biological target: T5, CAR (NR1I3) (Homo sapiens, UniProt Q14994); experiment: ATG_PBREM_CIS: Factorial reporter gene assay (HepG2); type: cell-based; parameters: endogenous in cells; host or cells: HepG2; conditions: HepG2 reporter
T5 sequence (Q14994 1-352): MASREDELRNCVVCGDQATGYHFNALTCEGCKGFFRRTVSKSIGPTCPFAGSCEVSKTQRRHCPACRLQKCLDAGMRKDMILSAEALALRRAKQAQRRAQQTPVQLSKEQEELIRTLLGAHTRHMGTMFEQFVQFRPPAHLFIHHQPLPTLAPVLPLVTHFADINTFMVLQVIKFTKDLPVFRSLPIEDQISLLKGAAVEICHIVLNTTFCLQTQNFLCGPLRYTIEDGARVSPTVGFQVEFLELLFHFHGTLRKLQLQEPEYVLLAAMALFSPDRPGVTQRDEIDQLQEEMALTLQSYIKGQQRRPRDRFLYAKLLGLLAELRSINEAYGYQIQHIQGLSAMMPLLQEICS
Method: A multiple reporter transcription unit (MRTU) library consisting of 48 transcription factor binding sites was transfected into the HepG2 human liver hepatoma cell line. In addition to the cis-acting reporter genes (CIS), a modification of the approach was used to generate a trans-system (TRANS) with a mammalian one-hybrid assay consisting of an additional 25 MRTU library reporting the activity of nuclear receptor super-family members. […] These assays were performed by Attagene Inc. (Morrisville NC) under contract to EPA.
In addition to the cis-acting reporter genes (CIS), a modification of the approach was used to generate a trans-system (TRANS) with a mammalian one-hybrid assay consisting of an additional 25 MRTU library reporting the activity of nuclear receptor super-family members. […] Chemicals were then tested in the CIS and TRANS assays at seven concentrations starting at the MTC and followed by three-fold serial dilutions. These assays were performed by Attagene Inc. (Morrisville NC) under contract to EPA. Detailed description of the methods, data and analysis methods for this dataset will be presented in a separate publication.

Compound	NCGC_PXR_Agonist_human (PXR Human (NR1I2))	NVS_NR_hPXR (PXR (NR1I2))	NCGC_PPARg_Agonist (PPARg (PPARG))	ATG_PPARg_TRANS [1]	CLZD_CYP1A1_24 (CYP1A1)	CLZD_CYP1A2_24 (CYP1A2)	CLZD_CYP2B6_24 (CYP2B6)	CHR_Rat_Liver_1_AnyLesion (Rat Liver [2])	CHR_Rat_Liver_2_PreneoplasticLesion (Rat Liver [3])	CHR_Rat_Liver_3_NeoplasticLesion (Rat Liver [4])	CLZD_CYP3A4_24 (CYP3A4)	CHR_Mouse_Liver_1_AnyLesion (Mouse Liver [5])	CHR_Mouse_Liver_2_PreneoplasticLesion (Mouse Liver [6])	CHR_Mouse_Liver_3_NeoplasticLesion (Mouse Liver [7])	CLZD_ABCB1_24 (ABCB1)	CLZD_ABCB11_24 (ABCB11)	ATG_PBREM_CIS (CAR (NR1I3))
N#CSCSc1nc2ccccc2s1 [r289]	4.409	6.169	4.706	–	–	–	–	–	–	–	–	–	–	–	–	–	–
Fc1ccc(Oc2ccnc3cc(Cl)cc(Cl)c23)cc1 [r277]	–	–	5.174	5.18	5.128	5.172	4.999	0	0	0	–	–	–	–	–	–	–
CCC(C)(C)C(=O)OC1=C(c2cc(Cl)cc(Cl)c2)C(=O)OC12CCCCC2 [r285]	–	6.367	5.556	5.444	–	–	–	6	6	0	6.36	6	6	6	–	–	–
C=C(C)[C@H]1Cc2c(ccc3c2O[C@@H]2COc4cc(OC)c(OC)cc4[C@@H]2C3=O)O1 [r282]	4.77	–	–	–	5.398	–	5.235	0	0	0	–	–	–	–	4.54	5.217	6.638
